Laboratory results reported in PMC9516332 (Frontiers in Oncology, 2022).

What was measured:
Test in all cases: Kinase panel profiling at 1 µmol/L (MSA or IMAP), percentage inhibition
Assay type in all cases: biochemical
[1] = molecular target: panel of 255 wild-type kinases (Homo sapiens, UniProt P49840); conditions: kinase GSK3α; 1 µmol/L single concentration; read-out: %-inhibition at 1 µmol/L, GSK3α
[2] = molecular target: panel of 255 wild-type kinases (Homo sapiens, UniProt P22607); conditions: kinase FGFR3; 1 µmol/L single concentration; read-out: %-inhibition at 1 µmol/L, FGFR3
[3] = molecular target: panel of 255 wild-type kinases (Homo sapiens, UniProt P11309); conditions: kinase PIM1; 1 µmol/L single concentration; read-out: %-inhibition at 1 µmol/L, PIM1
[4] = molecular target: panel of 255 wild-type kinases (Homo sapiens, UniProt Q07912); conditions: ACK kinase assay; 1 µmol/L single concentration; read-out: %-inhibition ACK
[5] = molecular target: panel of 255 wild-type kinases (Homo sapiens, UniProt P22612); conditions: kinase PKACγ; 1 µmol/L single concentration; read-out: %-inhibition at 1 µmol/L, PKACγ
[6] = molecular target: panel of 255 wild-type kinases (Homo sapiens, UniProt P49761); conditions: kinase CLK3; 1 µmol/L single concentration; read-out: %-inhibition at 1 µmol/L, CLK3
[7] = molecular target: panel of 255 wild-type kinases (Homo sapiens, UniProt P06493); conditions: CDC2/CycB1 kinase assay; 1 µmol/L single concentration; read-out: %-inhibition CDC2/CycB1
[8] = molecular target: panel of 255 wild-type kinases (Homo sapiens, UniProt P06241); conditions: kinase FYN [isoform a]; 1 µmol/L single concentration; read-out: %-inhibition at 1 µmol/L, FYN [isoform a]
[9] = molecular target: panel of 255 wild-type kinases (Homo sapiens, UniProt Q9NYY3); conditions: kinase PLK2; 1 µmol/L single concentration; read-out: %-inhibition at 1 µmol/L, PLK2
[10] = molecular target: panel of 255 wild-type kinases (Homo sapiens, UniProt Q8N568); conditions: kinase DCAMKL2; 1 µmol/L single concentration; read-out: %-inhibition at 1 µmol/L, DCAMKL2
[11] = molecular target: panel of 255 wild-type kinases (Homo sapiens, UniProt Q16539); conditions: p38α; 1 µmol/L single concentration; read-out: %-inhibition, p38α
[12] = molecular target: T1, panel of 255 wild-type kinases (Homo sapiens, UniProt Q96BR1); conditions: kinase SGK3; 1 µmol/L single concentration; read-out: %-inhibition at 1 µmol/L, SGK3
T1 sequence (Q96BR1 1-496): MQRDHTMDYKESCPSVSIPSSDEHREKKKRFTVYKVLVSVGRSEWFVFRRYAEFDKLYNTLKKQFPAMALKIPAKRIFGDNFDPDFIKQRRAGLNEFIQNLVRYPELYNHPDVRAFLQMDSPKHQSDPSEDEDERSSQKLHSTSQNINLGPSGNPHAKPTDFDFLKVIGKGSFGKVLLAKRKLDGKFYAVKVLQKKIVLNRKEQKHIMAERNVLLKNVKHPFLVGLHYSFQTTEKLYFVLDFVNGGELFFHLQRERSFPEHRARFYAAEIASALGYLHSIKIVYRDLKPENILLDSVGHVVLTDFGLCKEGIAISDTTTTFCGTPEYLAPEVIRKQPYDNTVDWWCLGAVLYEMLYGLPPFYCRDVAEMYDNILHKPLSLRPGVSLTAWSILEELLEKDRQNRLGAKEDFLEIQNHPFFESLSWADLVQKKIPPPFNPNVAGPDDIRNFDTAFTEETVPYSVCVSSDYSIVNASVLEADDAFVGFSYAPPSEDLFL

[13] = molecular target: panel of 255 wild-type kinases (Homo sapiens, UniProt P54756); conditions: kinase EPHA5; 1 µmol/L single concentration; read-out: %-inhibition at 1 µmol/L, EPHA5
[14] = molecular target: T2, panel of 255 wild-type kinases (Homo sapiens, UniProt O43781); conditions: kinase DYRK3; 1 µmol/L single concentration; read-out: %-inhibition at 1 µmol/L, DYRK3
T2 sequence (O43781 1-588): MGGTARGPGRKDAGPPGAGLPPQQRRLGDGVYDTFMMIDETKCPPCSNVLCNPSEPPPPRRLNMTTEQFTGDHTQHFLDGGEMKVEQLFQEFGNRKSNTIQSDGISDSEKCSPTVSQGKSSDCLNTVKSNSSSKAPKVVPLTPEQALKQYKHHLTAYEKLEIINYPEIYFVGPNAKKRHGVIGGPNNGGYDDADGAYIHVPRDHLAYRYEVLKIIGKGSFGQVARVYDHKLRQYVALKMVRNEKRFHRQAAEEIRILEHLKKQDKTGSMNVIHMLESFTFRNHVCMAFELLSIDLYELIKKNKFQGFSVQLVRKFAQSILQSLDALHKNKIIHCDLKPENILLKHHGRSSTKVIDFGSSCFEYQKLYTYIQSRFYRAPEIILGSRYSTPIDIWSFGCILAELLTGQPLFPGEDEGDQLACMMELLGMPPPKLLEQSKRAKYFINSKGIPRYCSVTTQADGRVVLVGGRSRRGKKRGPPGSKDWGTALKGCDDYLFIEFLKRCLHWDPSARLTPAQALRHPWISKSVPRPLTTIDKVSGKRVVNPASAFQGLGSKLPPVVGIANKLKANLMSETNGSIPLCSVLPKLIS

[15] = molecular target: panel of 255 wild-type kinases (Homo sapiens, UniProt Q05397); conditions: kinase FAK; 1 µmol/L single concentration; read-out: %-inhibition at 1 µmol/L, FAK
[16] = molecular target: panel of 255 wild-type kinases (Homo sapiens, UniProt Q04912); conditions: kinase RON; 1 µmol/L single concentration; read-out: %-inhibition at 1 µmol/L, RON
[17] = molecular target: panel of 255 wild-type kinases (Homo sapiens, UniProt Q9Y3S1); conditions: kinase WNK2; 1 µmol/L single concentration; read-out: %-inhibition at 1 µmol/L, WNK2
[18] = molecular target: panel of 255 wild-type kinases (Homo sapiens, UniProt P51812); conditions: kinase RSK2; 1 µmol/L single concentration; read-out: %-inhibition at 1 µmol/L, RSK2

| inhibition at 1 µM [1] | inhibition at 1 µM [2] | inhibition at 1 µM [3] | inhibition at 1 µM [4] | inhibition at 1 µM [5] | inhibition at 1 µM [6] | inhibition at 1 µM [7] | inhibition at 1 µM [8] | inhibition at 1 µM [9] | inhibition at 1 µM [10] | inhibition at 1 µM [11] | inhibition at 1 µM [12] | inhibition at 1 µM [13] | inhibition at 1 µM [14] | inhibition at 1 µM [15] | inhibition at 1 µM [16] | inhibition at 1 µM [17] | inhibition at 1 µM [18] | SMILES |
| --- | --- | --- | --- | --- | --- | --- | --- | --- | --- | --- | --- | --- | --- | --- | --- | --- | --- | --- |
| -1.06% | 2.76% | -6% | 0.731% | -4% | 7.48% | -11% | -3.52% | 2.78% | 0.902% | 3.34% | -4% | -12% | -4.7% | -1.9% | -1.28% | -4% | -1.52% | Cn1cnc2c(F)c(Nc3ccc(Br)cc3Cl)c(C(=O)NOCCO)cc21 [selumetinib] |
| 5.54% | 2.63% | -3.59% | 9% | -0.548% | 5.42% | -7% | 2.29% | 7% | 3.59% | 1.53% | -4% | -13% | 1.07% | -1.17% | 2.23% | 0.536% | -3% | Cc1cc(Nc2ncnc3ccc(NC4=NC(C)(C)CO4)cc23)ccc1Oc1ccn2ncnc2c1 [tucatinib] |

Continued, molecule first:

| SMILES | inhibition at 1 µM [1] | inhibition at 1 µM [2] | inhibition at 1 µM [3] | inhibition at 1 µM [4] | inhibition at 1 µM [5] | inhibition at 1 µM [6] | inhibition at 1 µM [7] | inhibition at 1 µM [8] | inhibition at 1 µM [9] | inhibition at 1 µM [10] | inhibition at 1 µM [11] | inhibition at 1 µM [12] | inhibition at 1 µM [13] | inhibition at 1 µM [14] | inhibition at 1 µM [15] | inhibition at 1 µM [16] | inhibition at 1 µM [17] | inhibition at 1 µM [18] |
| --- | --- | --- | --- | --- | --- | --- | --- | --- | --- | --- | --- | --- | --- | --- | --- | --- | --- | --- |
| FC(F)(F)c1ccc(CNc2ccc(Cc3c[nH]c4ncc(Cl)cc34)cn2)cn1 [pexidartinib] | 3% | 68% | -3.77% | 12% | 3% | 18% | 32% | -9% | 7% | 3.25% | 0.932% | -0.803% | 4% | 8% | 30% | 23% | -1.8% | 14% |
| CO[C@]1(C(=O)N[C@@H](C)c2ccc(-n3cc(F)cn3)nc2)CC[C@H](c2nc(C)cc(Nc3cc(C)[nH]n3)n2)CC1 [pralsetinib] | 62% | 96% | -1.53% | 84% | 10% | 9% | 15% | 82% | 6.54% | 1.65% | 3% | -0.536% | 74% | -4.32% | 14% | 2.6% | -1% | 23% |
| CCn1c(=O)c(-c2cc(NC(=O)Nc3ccccc3)c(F)cc2Br)cc2cnc(NC)cc21 [ripretinib] | -0.0405% | 52% | -5% | 23% | 2.69% | -7% | -5.56% | 23% | 6% | 2% | 88% | -9% | 100% | -3.77% | 0.833% | 1.39% | -1.64% | 3.31% |
| COc1ccc(CN2C3CC2CN(c2ccc(-c4cc(OCC(C)(C)O)cn5ncc(C#N)c45)cn2)C3)cn1 [selpercatinib] | 30% | 95% | -5.68% | 4.48% | -2.63% | 0.425% | -4% | 24% | 4% | 1.22% | -0.132% | -0.72% | 69% | 19% | 10% | 49% | -2.37% | 47% |
